The record followed here is patent publication US7151105B2, “Inhibitors of Hepatitis C virus RNA-dependent RNA polymerase, and compositions and treatments using the same” (Agouron Pharmaceuticals, Inc., priority 2004, dated 2006).

Where a name gives a salt, the structure may show the parent alone.

Broadly, the IC50 is the concentration at which inhibition is half-maximal.

The assay deals with T1, Recombinant HCV polymerase (Hepatitis C virus genotype 1b, UniProt P26663).
T1 construct: Recombinant HCV polymerase was tested for its ability to perform primer/template-directed transcription
T1 sequence (P26663 2420-3010): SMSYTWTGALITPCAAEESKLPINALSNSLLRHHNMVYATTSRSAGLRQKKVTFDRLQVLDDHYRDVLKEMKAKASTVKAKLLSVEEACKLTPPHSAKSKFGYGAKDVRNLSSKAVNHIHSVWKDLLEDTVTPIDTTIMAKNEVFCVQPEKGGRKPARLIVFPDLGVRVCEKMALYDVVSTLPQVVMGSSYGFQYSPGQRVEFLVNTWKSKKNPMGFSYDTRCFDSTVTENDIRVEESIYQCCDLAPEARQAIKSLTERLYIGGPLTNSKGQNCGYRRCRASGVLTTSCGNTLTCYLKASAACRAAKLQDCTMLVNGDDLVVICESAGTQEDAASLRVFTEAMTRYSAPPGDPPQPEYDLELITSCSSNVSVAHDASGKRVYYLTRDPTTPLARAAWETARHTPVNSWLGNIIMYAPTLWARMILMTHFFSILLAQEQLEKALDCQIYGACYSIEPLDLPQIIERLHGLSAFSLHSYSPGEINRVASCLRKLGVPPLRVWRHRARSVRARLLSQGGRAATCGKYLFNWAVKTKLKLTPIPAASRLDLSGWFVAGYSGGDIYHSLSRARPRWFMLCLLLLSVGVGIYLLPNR
Put plainly: biochemical. The conditions noted are these: inhibition of polymerase-directed transcription; 30 min at 30° C; 30 nM enzyme; cpm data in triplicate. In short, it runs like this: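 Primer/template-directed RNA synthesis by 2.5 pmol HCV polymerase on poly(rC)300/biotin-dG12 with 1 μM GTP plus α-32P-GTP, in pH 7.2 Tris buffer with 10 mM MgCl2, for 30 min at 30 °C. Products were filter-captured and counted, with 1% DMSO final. IC50 was fitted from triplicate cpm; percent inhibition was reported where IC50 was impractical.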
In the case of `CCCOc1cc(O)c(CC)cc1CCC1(C2CCCC2)CC(O)=C(Cc2nc3ncc(C)cn3n2)C(=O)O1` (stereo not drawn) [A(47), 6-Cyclopentyl-6-[2-(5-ethyl-4-hydroxy-2-propoxyphenyl)ethyl]-4-hydroxy-3-[(6-methyl[1,2,4]triazolo[1,5-a]pyrimidin-2-yl)methyl]-5,6-dihydro-2H-pyran-2-one], the IC50 stood at 5 nM. To `CCc1cc(CCC2(C3CCCC3)CC(O)=C(Cc3nc4nc(C)cc(C)n4n3)C(=O)O2)c2c(c1O)CCO2` (single isomer, unassigned; enantiomer 2) [A(13), Enantiomer 2 of 6-Cyclopentyl-3-[(5,7-dimethyl[1,2,4]triazolo[1,5-a]pyrimidin-2-yl)methyl]-6-[2-(5-ethyl-4-hydroxy-2,3-dihydro-1-benzofuran-7-yl)ethyl]-4-hydroxy-5,6dihydro-2H-pyran-2-one] belongs 1 nM.

Regarding `CCc1cc(CCC2(C3CCCC3)CC(O)=C(Cc3nc4nc(C)cc(C)n4n3)C(=O)O2)ccc1CN` (stereo not drawn) [A(125), 6-{2-[4-(Aminomethyl)-3-ethylphenyl]ethyl}-6-cyclopentyl-3-[(5,7-dimethyl[1,2,4]triazolo[1,5-a]pyrimidin-2-yl)methyl]-4-hydroxy-5,6-dihydro-2H-pyran-2-one hydrochloride], the IC50 worked out at 10 nM.

Regarding `CCCS(=O)(=O)Nc1ccc(CCC2(C3CCCC3)CC(O)=C(Cc3nc4nc(C)cc(C)n4n3)C(=O)O2)cc1CC` (stereo not drawn) [A(109), N-[4-(2-{2-cyclopentyl-5-[(5,7-dimethyl[1,2,4]triazolo[1,5-a]pyrimidin-2-yl)methyl]-4-hydroxy-6-oxo-3,6-dihydro-2H-pyran-2-yl}ethyl)-2-ethylphenyl]propane-1-sulfonamide], the 50% inhibitory concentration (IC50) came to 6 nM. To `Cc1cc(C)n2nc(CC3=C(O)CC(CCc4ccc(S(C)(=O)=O)c(Cl)c4)(C4CCCC4)OC3=O)nc2n1` (stereo not drawn) [B(1), 6-{2-[3-Chloro-4-(methylsulfonyl)phenyl]ethyl}-6-cyclopentyl-3-[(5,7-dimethyl[1,2,4]triazolo[1,5-a]pyrimidin-2-yl)methyl]hydroxy-5,6-dihydro-2H-pyran-2-one] belongs 60 nM.

For `CS(=O)(=O)c1ccc(CCC2(C3CCCC3)CC(=O)CC(=O)O2)cc1C(F)(F)F` (stereo not drawn) [B(3)], the IC50 was 6400 nM. Then `CCCOc1cc(O)c(CC)cc1CCC1(C2CCCC2)CC(O)=C(Cc2nc3nc(C)cc(C)n3n2)C(=O)O1` (stereo not drawn) [A(1), 6Cyclopentyl-3[(5,7-dimethyl[1,2,4]triazolo[1,5-a]pyrimidin-2-yl)methyl]-6-[2-(5-ethyl-4-hydroxy-2-propoxyphenyl)ethyl]-4-hydroxy-5,6dihydro-2H-pyran-2-one], with 3 nM. For the compound `Cc1cc(C)n2nc(CC3=C(O)CC(CCn4cc(Br)ccc4=O)(C4CCCC4)OC3=O)nc2n1` (stereo not drawn) [B(30), 5-Bromo-1-(2-{2-cyclopentyl-5-[(5,7-dimethyl[1,2,4]triazolo[1,5-a]pyrimidin-2-yl)methyl]-4-hydroxy-6-oxo-3,6-dihydro-2H-pyran-2-yl}ethyl)pyridin-2(1H)-one], the IC50 was determined as 1200 nM. Regarding `O=C1CC(=O)OC(CCc2ccc(C(=O)O)c(F)c2)(C2CCCC2)C1` (stereo not drawn) [B(6), 4-[2-(2-Cyclopentyl-4,6-dioxotetrahydro-2H-pyran-2-yl)ethyl]-2-fluorobenzoic acid], the IC50 stood at 12000 nM.

Regarding `CCc1cc(CC[C@]2(C3CCCC3)CC(O)=C(Cc3nc4ncc(C)cn4n3)C(=O)O2)c(O)cc1O` [A(21), (6R)-6-cyclopentyl-6-[2-(5-ethyl-2,4dihydroxyphenyl)ethyl]-4-hydroxy-3-[(6-methyl[1,2,4]triazolo[1,5-a]pyrimidin-2-yl)methyl]-5,6-dihydro-2H-pyran-2-one], the IC50 was 1 nM. To `COc1ccc(CCC2(C3CCCC3)CC(O)=C(Cc3nc4nc(C)cc(C)n4n3)C(=O)O2)cc1C(F)(F)F` (stereo not drawn) [A(23), 6-Cyclopentyl-3-[(5,7-dimethyl[1,2,4]triazolo[1,5-a]pyrimidin-2-yl)methyl]-4-hydroxy-6-{2-[4-methoxy-3-(trifluoromethyl)phenyl]ethyl}-5,6-dihydro-2H-pyran-2-one] belongs 6 nM; to `Cc1cc(C)n2nc(CC3=C(O)CC(CCc4ccc(S(=O)(=O)C(F)(F)F)cc4)(C4CCCC4)OC3=O)nc2n1` (stereo not drawn) [A(65)], 250 nM; to `Cc1nn(C)c(Cl)c1CC1=C(O)CC(CCc2ccc(C(C)(C)C#N)c(F)c2)(C2CCCC2)OC1=O` (stereo not drawn) [A(96), 2-[4-(2-{5-[(5-Chloro-1,3-dimethyl-1H-pyrazol-4-yl)methyl]-2-cyclopentyl-4-hydroxy-6-oxo-3,6-dihydro-2H-pyran-2-yl}ethyl)-2-fluorophenyl]-2-methylpropanenitrile], 6 nM. As for `CCn1nc(C)c(CC2=C(O)CC(CCc3cc(Cl)c(OC)cc3OC)(C3CCCC3)OC2=O)c1C` (stereo not drawn) [B(18), 6-[2-(5-Chloro-2,4-dimethoxyphenyl)ethyl]-6-cyclopentyl-3-[(1-ethyl-3,5-dimethyl-1H-pyrazol-4-yl)methyl]-4-hydroxy-5,6-dihydro-2H-pyran-2-one], the IC50 was 170 nM. Then `CCc1cc(CCC2(C3CCCC3)CC(O)=C(Cc3nc4nc(C)cc(C)n4n3)C(=O)O2)ccc1OCCN` (stereo not drawn) [A(71)], with 9 nM. To `CCOc1cc(O)c(CC)cc1CCC1(C2CCCC2)CC(O)=C(Cc2nc3nc(C)cc(C)n3n2)C(=O)O1` (stereo not drawn) [A(22), 6-Cyclopentyl-3-[(5,7-dimethyl[1,2,4]triazolo[1,5-a]pyrimidin-2-yl)methyl]-6-[2-(2-ethoxy-5-ethyl-4-hydroxyphenyl)ethyl]-4-hydroxy-5,6-dihydro-2H-pyran-2-one] belongs 4 nM; to `CCc1cc(CCC2(C3CCCC3)CC(O)=C(Cc3nc4ncccn4n3)C(=O)O2)ccc1-c1ncco1` (stereo not drawn) [A(136), 6-Cyclopentyl-6-{2-[3-ethyl-4-(1,3-oxazol-2-yl)phenyl]ethyl}-4-hydroxy-3-([1,2,4]triazolo[1,5-a]pyrimidin-2-ylmethyl)-5,6-dihydro-2H-pyran-2-one], 3 nM; to `Cc1cc(C)n2nc(CC3=C(O)CC(CCc4ccc(C(C)(C)O)c(C)c4)(C4CCCC4)OC3=O)nc2n1` (stereo not drawn) [B(32), 6-Cyclopentyl-3-[(5,7-dimethyl[1,2,4]triazolo[1,5-a]pyrimidin-2-yl)methyl]-4-hydroxy-6-{2-[4-(1-hydroxy-1-methylethyl)-3-methylphenyl]ethyl}-5,6-dihydro-2H-pyran-2-one], 91 nM.

Take `COc1cc(O)c(C(C)=O)cc1CCC1(C2CCCC2)CC(=O)CC(=O)O1` (stereo not drawn) [A(99), 6-[2-(5-Acetyl-4-hydroxy-2-methoxyphenyl)ethyl]-6-cyclopentyldihydro-2H-pyran-2,4(3H)-dione]: the half-inhibitory concentration (IC50) turned out to be 8400 nM.

In the case of `CCc1cc(CCC2(C3CCCC3)CC(O)=C(Cc3nc4nc(C)cc(C)n4n3)C(=O)O2)cc(C(C)C)n1` (stereo not drawn) [A(34), 6-Cyclopentyl-3-[(5,7-dimethyl[1,2,4]triazolo[1,5-a]pyrimidin-2-yl)methyl]-6-[2-(2-ethyl-6-isopropylpyridin-4-yl)ethyl]-4-hydroxy-5,6-dihydro-2H-pyran-2-one], the IC50 amounted to 12 nM. Consider `Cn1cc(CC2=C(O)CC(CCc3ccc(C(C)(C)C#N)c(Cl)c3)(C3CCCC3)OC2=O)cn1` (stereo not drawn) [B(24), 2-[2-Chloro-4-(2-{2-cyclopentyl-4-hydroxy-5-[(1-methyl-1H-pyrazol-4-yl)methyl]-6-oxo-3,6-dihydro-2H-pyran-2-yl}ethyl)phenyl]-2-methylpropanenitrile], for which the IC50 was determined as 100 nM.
